Experimental data as given in ChEMBL document CHEMBL4507318, “Data for DCP probe BAY-985” (2021).

Experiments:
[1] = test system: Tyrosine-protein kinase ABL1 (Homo sapiens), P00519 [F317I]
[2] = target: Atypical kinase COQ8B, mitochondrial (Homo sapiens) (UniProt Q96D53)
[3] = target: RAC-beta serine/threonine-protein kinase (Homo sapiens) (UniProt P31751)
[4] = target: Protein-tyrosine kinase 6 (Homo sapiens) (UniProt Q13882)
[5] = target: Serine/threonine-protein kinase BRSK1 (Homo sapiens) (UniProt Q8TDC3)
Sequence of Serine/threonine-protein kinase BRSK1 (Homo sapiens) (Q8TDC3 whole entry): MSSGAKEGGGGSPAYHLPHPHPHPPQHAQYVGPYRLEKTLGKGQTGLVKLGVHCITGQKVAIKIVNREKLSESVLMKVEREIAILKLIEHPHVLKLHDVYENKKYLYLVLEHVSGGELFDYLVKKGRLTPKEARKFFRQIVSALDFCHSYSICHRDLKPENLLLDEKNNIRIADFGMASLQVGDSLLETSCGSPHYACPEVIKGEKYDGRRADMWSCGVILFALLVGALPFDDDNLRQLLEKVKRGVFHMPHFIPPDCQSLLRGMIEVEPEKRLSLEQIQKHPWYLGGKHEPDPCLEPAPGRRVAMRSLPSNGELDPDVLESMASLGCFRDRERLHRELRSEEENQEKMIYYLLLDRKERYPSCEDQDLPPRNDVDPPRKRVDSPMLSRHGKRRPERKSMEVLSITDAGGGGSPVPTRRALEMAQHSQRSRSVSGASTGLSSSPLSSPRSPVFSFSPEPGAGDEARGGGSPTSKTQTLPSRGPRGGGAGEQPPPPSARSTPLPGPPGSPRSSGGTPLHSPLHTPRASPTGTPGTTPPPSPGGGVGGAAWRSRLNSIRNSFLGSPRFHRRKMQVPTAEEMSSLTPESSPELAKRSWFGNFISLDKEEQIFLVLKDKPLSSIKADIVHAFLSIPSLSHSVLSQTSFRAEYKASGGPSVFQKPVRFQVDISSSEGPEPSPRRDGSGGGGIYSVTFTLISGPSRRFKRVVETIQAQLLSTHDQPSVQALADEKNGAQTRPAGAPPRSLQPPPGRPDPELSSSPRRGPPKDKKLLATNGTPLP

[6] = target: Calcium/calmodulin-dependent protein kinase type 1 (Homo sapiens) (UniProt Q14012)
[7] = target: Calcium/calmodulin-dependent protein kinase kinase 2 (Homo sapiens) (UniProt Q96RR4)
[8] = target: Dual specificity protein kinase CLK4 (Homo sapiens) (UniProt Q9HAZ1)
Sequence of Dual specificity protein kinase CLK4 (Homo sapiens) (Q9HAZ1 whole entry, looked up, canonical isoform): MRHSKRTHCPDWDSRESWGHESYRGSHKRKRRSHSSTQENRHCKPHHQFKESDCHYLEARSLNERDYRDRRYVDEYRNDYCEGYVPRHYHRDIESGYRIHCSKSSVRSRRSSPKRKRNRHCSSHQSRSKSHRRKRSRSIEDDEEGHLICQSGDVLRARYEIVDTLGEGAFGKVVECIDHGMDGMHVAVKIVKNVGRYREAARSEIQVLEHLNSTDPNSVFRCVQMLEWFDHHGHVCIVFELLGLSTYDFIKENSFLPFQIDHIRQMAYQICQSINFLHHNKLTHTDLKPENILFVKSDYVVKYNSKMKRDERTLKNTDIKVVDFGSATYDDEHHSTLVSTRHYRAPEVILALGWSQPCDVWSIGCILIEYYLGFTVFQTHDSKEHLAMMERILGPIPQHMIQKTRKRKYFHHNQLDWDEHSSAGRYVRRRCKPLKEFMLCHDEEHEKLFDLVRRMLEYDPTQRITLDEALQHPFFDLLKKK

[9] = target: Casein kinase I isoform epsilon (Homo sapiens) (UniProt P49674)
[10] = target: Megakaryocyte-associated tyrosine-protein kinase (Homo sapiens) (UniProt P42679)
Sequence of Megakaryocyte-associated tyrosine-protein kinase (Homo sapiens) (P42679 whole entry): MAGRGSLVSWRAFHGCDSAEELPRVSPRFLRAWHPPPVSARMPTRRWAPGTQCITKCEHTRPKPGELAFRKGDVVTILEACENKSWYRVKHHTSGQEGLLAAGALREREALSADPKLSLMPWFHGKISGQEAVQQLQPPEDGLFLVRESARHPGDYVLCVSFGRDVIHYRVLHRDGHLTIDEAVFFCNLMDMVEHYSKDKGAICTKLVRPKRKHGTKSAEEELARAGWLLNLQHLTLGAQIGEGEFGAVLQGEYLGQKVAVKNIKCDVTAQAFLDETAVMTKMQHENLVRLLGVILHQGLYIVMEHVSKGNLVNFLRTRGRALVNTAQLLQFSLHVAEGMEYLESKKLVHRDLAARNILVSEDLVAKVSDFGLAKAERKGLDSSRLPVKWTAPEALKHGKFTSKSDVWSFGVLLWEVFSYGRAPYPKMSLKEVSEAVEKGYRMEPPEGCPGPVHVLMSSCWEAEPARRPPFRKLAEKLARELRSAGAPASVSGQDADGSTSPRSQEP

[11] = target: Ephrin type-A receptor 2 (Homo sapiens) (UniProt P29317)
[12] = target: Ephrin type-A receptor 4 (Homo sapiens) (UniProt P54764)
[13] = test system: Receptor-type tyrosine-protein kinase FLT3 (Homo sapiens), P36888 [D835Y]
[14] = target: Rhodopsin kinase GRK1 (Homo sapiens) (UniProt Q15835)
[15] = target: Rhodopsin kinase GRK7 (Homo sapiens) (UniProt Q8WTQ7)
[16] = target: Interleukin-1 receptor-associated kinase 1 (Homo sapiens) (UniProt P51617)
[17] = target: Interleukin-1 receptor-associated kinase 4 (Homo sapiens) (UniProt Q9NWZ3)
[18] = target: Mitogen-activated protein kinase 10 (Homo sapiens) (UniProt P53779)
[19] = test system: Mast/stem cell growth factor receptor Kit (Homo sapiens), P10721 [L576P]
[20] = target: Serine/threonine-protein kinase 10 (Homo sapiens) (UniProt O94804)
[21] = target: Mitogen-activated protein kinase kinase kinase kinase 5 (Homo sapiens) (UniProt Q9Y4K4)
[22] = target: Dual specificity mitogen-activated protein kinase kinase 2 (Homo sapiens) (UniProt P36507)
[23] = target: Dual specificity mitogen-activated protein kinase kinase 7 (Homo sapiens) (UniProt O14733)
[24] = target: Mitogen-activated protein kinase kinase kinase 9 (Homo sapiens) (UniProt P80192)
[25] = target: Mitogen-activated protein kinase kinase kinase 14 (Homo sapiens) (UniProt Q99558)
[26] = target: Phosphorylase b kinase gamma catalytic chain, skeletal muscle/heart isoform (Homo sapiens) (UniProt Q16816)
Sequence of Phosphorylase b kinase gamma catalytic chain, skeletal muscle/heart isoform (Homo sapiens) (Q16816 whole entry, looked up, the tested form may be a part, canonical isoform): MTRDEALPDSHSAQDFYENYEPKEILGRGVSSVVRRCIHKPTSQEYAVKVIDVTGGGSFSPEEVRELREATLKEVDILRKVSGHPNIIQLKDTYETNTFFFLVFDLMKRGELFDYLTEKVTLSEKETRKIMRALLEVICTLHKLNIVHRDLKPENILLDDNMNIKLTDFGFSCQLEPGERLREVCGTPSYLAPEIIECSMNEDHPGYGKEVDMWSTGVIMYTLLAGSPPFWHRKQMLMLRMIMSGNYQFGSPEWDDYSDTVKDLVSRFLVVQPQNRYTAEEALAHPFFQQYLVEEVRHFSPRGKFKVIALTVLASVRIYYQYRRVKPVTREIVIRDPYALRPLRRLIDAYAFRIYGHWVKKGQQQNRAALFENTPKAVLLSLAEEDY

[27] = target: Phosphatidylinositol 3-kinase C2 domain-containing subunit gamma (Homo sapiens) (UniProt O75747)
[28] = test system: Phosphatidylinositol 4,5-bisphosphate 3-kinase catalytic subunit alpha isoform (Homo sapiens), P42336 [E545K]
[29] = test system: Phosphatidylinositol 4,5-bisphosphate 3-kinase catalytic subunit alpha isoform (Homo sapiens), P42336 [Q546K]
Sequence of Phosphatidylinositol 4,5-bisphosphate 3-kinase catalytic subunit alpha isoform (Homo sapiens), P42336 [Q546K] (P42336 whole entry Q546K, canonical isoform): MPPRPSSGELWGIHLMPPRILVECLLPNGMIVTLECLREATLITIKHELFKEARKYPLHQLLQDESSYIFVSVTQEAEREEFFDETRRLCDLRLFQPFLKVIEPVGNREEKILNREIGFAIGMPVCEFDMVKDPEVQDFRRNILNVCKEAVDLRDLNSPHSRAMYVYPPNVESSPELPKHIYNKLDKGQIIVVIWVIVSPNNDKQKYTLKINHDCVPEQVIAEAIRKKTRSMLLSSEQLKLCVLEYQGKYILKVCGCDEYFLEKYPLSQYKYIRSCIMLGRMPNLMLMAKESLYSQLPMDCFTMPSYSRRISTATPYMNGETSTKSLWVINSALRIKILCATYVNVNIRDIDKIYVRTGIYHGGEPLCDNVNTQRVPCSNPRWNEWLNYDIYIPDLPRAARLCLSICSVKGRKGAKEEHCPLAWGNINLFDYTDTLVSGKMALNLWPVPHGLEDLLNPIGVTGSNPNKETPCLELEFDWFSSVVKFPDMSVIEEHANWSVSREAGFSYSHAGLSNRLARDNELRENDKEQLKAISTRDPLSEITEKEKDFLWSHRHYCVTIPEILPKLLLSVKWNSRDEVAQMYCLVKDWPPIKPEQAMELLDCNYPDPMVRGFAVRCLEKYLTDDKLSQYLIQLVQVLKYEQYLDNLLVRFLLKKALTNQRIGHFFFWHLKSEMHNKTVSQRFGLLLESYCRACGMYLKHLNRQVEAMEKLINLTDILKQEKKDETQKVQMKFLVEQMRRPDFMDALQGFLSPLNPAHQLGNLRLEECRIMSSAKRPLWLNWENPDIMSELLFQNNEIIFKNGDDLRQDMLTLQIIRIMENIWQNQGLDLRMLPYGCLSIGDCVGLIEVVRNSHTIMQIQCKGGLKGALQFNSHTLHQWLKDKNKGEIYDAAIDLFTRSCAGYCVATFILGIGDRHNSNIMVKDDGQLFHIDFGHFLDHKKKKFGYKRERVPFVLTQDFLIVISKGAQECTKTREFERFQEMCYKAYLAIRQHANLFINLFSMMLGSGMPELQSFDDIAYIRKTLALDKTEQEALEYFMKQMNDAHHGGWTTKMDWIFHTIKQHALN

[30] = target: Serine/threonine-protein kinase PknB (Mycobacterium tuberculosis) (UniProt P9WI81)
[31] = target: cGMP-dependent protein kinase 1 (Homo sapiens) (UniProt Q13976)
Sequence of cGMP-dependent protein kinase 1 (Homo sapiens) (Q13976 whole entry): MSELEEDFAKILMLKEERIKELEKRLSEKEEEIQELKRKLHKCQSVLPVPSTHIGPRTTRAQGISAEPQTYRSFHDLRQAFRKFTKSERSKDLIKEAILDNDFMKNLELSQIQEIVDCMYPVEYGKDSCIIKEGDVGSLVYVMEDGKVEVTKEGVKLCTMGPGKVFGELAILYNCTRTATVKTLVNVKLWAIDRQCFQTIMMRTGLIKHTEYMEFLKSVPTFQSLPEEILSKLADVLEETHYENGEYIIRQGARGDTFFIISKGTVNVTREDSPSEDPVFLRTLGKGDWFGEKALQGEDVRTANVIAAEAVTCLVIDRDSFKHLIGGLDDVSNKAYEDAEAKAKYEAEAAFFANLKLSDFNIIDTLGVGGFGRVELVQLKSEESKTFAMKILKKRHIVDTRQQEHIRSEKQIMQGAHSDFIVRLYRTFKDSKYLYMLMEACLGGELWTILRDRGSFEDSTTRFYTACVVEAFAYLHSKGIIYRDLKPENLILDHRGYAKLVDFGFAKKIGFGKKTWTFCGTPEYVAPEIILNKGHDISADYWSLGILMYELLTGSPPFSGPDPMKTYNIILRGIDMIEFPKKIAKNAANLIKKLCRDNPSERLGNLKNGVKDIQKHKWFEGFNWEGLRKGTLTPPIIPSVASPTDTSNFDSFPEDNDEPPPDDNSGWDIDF

[32] = target: cAMP-dependent protein kinase catalytic subunit PRKX (Homo sapiens) (UniProt P51817)
[33] = target: Serine/threonine-protein kinase RIO3 (Homo sapiens) (UniProt O14730)
[34] = target: STE20/SPS1-related proline-alanine-rich protein kinase (Homo sapiens) (UniProt Q9UEW8)
[35] = target: Tyrosine-protein kinase SYK (Homo sapiens) (UniProt P43405)
[36] = target: Serine/threonine-protein kinase tousled-like 1 (Homo sapiens) (UniProt Q9UKI8)
[37] = target: Transient receptor potential cation channel subfamily M member 6 (Homo sapiens) (UniProt Q9BX84)
[38] = target: Phosphatidylinositol 3-kinase catalytic subunit type 3 (Homo sapiens) (UniProt Q8NEB9)
[39] = target: Tyrosine-protein kinase ZAP-70 (Homo sapiens) (UniProt P43403)
[40] = target: 5-hydroxytryptamine receptor 1A (Homo sapiens) (UniProt P08908); conditions: Compound concentration 10.0 uM
[41] = target: 5-hydroxytryptamine receptor 7 (Homo sapiens) (UniProt P34969); conditions: Compound concentration 10.0 uM
Sequence of 5-hydroxytryptamine receptor 7 (Homo sapiens) (P34969 whole entry): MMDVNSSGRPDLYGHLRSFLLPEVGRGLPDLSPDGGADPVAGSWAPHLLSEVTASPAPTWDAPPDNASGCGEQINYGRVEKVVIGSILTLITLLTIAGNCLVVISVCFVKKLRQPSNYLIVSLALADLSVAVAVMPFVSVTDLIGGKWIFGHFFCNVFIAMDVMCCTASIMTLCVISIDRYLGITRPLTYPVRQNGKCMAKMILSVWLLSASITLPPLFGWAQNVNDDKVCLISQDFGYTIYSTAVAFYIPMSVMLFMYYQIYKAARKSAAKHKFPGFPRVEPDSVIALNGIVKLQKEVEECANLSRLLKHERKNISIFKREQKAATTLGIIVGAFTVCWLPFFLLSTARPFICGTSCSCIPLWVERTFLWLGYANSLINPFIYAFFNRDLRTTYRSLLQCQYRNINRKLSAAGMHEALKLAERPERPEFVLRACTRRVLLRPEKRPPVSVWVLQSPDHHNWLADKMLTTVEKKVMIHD

[42] = target: D(1A) dopamine receptor (Homo sapiens) (UniProt P21728); conditions: Compound concentration 10.0 uM
[43] = target: D(4) dopamine receptor (Homo sapiens) (UniProt P21917); conditions: Compound concentration 10.0 uM
[44] = target: Alpha-1A adrenergic receptor (Homo sapiens) (UniProt P35348); conditions: Compound concentration 10.0 uM
[45] = Compound concentration 1000.0 nM
[46] = Compound concentration 100.0 nM

Sequence of Protein-tyrosine kinase 6 (Homo sapiens) (Q13882 whole entry, looked up): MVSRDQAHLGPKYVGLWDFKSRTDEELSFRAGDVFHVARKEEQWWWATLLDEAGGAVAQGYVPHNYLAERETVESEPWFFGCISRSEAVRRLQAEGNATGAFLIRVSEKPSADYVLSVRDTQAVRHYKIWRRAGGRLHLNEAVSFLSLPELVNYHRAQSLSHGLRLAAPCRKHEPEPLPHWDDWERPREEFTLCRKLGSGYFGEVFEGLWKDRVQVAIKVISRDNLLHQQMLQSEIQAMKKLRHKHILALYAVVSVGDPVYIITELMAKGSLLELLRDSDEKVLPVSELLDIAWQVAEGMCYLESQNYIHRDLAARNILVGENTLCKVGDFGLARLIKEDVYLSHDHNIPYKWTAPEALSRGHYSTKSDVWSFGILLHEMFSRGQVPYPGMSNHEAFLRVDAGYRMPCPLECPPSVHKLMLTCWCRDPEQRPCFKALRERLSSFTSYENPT

SMILES: CN(C)c1ncnc(-c2ccc3nc(Nc4cc(CN5CCN(C(=O)CC(F)(F)F)CC5)ccn4)[nH]c3c2)c1Cl [BAY-440]
- residual activity [1, 45]: 28%
- residual activity [2, 45]: 90%
- residual activity [3, 45]: 95%
- residual activity [4, 45]: 86%
- residual activity [5, 45]: 100%
- residual activity [6, 45]: 100%
- residual activity [7, 45]: 88%
- residual activity [8, 45]: 99%
- residual activity [9, 45]: 100%
- residual activity [10, 45]: 69%
- residual activity [11, 45]: 100%
- residual activity [12, 45]: 92%
- residual activity [13, 45]: 38%
- residual activity [14, 45]: 90%
- residual activity [15, 45]: 90%
- residual activity [16, 45]: 44%
- residual activity [17, 45]: 39%
- residual activity [18, 45]: 51%
- residual activity [19, 45]: 87%
- residual activity [20, 45]: 54%
- residual activity [21, 45]: 100%
- residual activity [22, 45]: 74%
- residual activity [23, 45]: 100%
- residual activity [24, 45]: 90%
- residual activity [25, 45]: 62%
- residual activity [26, 45]: 96%
- residual activity [27, 45]: 83%
- residual activity [28, 45]: 76%
- residual activity [29, 45]: 30%
- residual activity [30, 45]: 100%
- residual activity [31, 45]: 94%
- residual activity [32, 45]: 100%
- residual activity [33, 45]: 92%
- residual activity [34, 45]: 69%
- residual activity [35, 45]: 96%
- residual activity [36, 45]: 89%
- residual activity [37, 45]: 100%
- residual activity [38, 45]: 100%
- residual activity [39, 45]: 100%
- inhibition [40]: 13.9%
- inhibition [41]: 13.4%
- inhibition [42]: 23%
- inhibition [43]: 7.18%
- inhibition [44]: 12.8%

SMILES: C[C@H](c1ccnc(Nc2nc3ccc(-c4cc(N(C)C)ncn4)cc3[nH]2)c1)N1CCN(C(=O)CC(F)(F)F)CC1 [BAY-985]
- residual activity [1, 46]: 100%
- residual activity [2, 46]: 79%
- residual activity [3, 46]: 100%
- residual activity [4, 46]: 85%
- residual activity [5, 46]: 100%
- residual activity [6, 46]: 88%
- residual activity [7, 46]: 77%
- residual activity [8, 46]: 82%
- residual activity [9, 46]: 100%
- residual activity [10, 46]: 95%
- residual activity [11, 46]: 100%
- residual activity [12, 46]: 98%
- residual activity [13, 46]: 41%
- residual activity [14, 46]: 90%
- residual activity [15, 46]: 89%
- residual activity [16, 46]: 100%
- residual activity [17, 46]: 100%
- residual activity [18, 46]: 81%
- residual activity [19, 46]: 91%
- residual activity [20, 46]: 86%
- residual activity [21, 46]: 96%
- residual activity [22, 46]: 100%
- residual activity [23, 46]: 92%
- residual activity [24, 46]: 100%
- residual activity [25, 46]: 100%
- residual activity [26, 46]: 100%
- residual activity [27, 46]: 94%
- residual activity [28, 46]: 100%
- residual activity [29, 46]: 45%
- residual activity [30, 46]: 91%
- residual activity [31, 46]: 100%
- residual activity [32, 46]: 99%
- residual activity [33, 46]: 97%
- residual activity [34, 46]: 100%
- residual activity [35, 46]: 31%
- residual activity [36, 46]: 76%
- residual activity [37, 46]: 100%
- residual activity [38, 46]: 100%
- residual activity [39, 46]: 100%
- inhibition [40]: 6.47%
- inhibition [41]: 16.6%
- inhibition [42]: 1.63%
- inhibition [43]: 8.17%
- inhibition [44]: 11.9%
